Earlier results in patent US7473787B2, “Bicyclic [3.1.0] derivatives as glycine transporter inhibitors” (Pfizer Inc, priority 2003, dated 2009).

System: NMDA receptor
Conditions: effect blocked by a specific NMDA-site antagonist and a glycine-site antagonist

CN(CCC(Oc1ccc(-c2ccccc2)cc1)c1ccc(F)cc1)CC(=O)O (stereo not shown) [NFPS]
effect on postsynaptic current driven by the NMDA receptor: increased the postsynaptic current
